Source: ChEMBL document CHEMBL5291721, “A preclinical secondary pharmacology resource illuminates target-adverse drug reaction associations of marketed drugs” (Nat Commun, 2023)

How the values were obtained:
Progesterone receptor = biological target: T1, Progesterone receptor (Homo sapiens, UniProt P06401)
T1 sequence (P06401 whole entry): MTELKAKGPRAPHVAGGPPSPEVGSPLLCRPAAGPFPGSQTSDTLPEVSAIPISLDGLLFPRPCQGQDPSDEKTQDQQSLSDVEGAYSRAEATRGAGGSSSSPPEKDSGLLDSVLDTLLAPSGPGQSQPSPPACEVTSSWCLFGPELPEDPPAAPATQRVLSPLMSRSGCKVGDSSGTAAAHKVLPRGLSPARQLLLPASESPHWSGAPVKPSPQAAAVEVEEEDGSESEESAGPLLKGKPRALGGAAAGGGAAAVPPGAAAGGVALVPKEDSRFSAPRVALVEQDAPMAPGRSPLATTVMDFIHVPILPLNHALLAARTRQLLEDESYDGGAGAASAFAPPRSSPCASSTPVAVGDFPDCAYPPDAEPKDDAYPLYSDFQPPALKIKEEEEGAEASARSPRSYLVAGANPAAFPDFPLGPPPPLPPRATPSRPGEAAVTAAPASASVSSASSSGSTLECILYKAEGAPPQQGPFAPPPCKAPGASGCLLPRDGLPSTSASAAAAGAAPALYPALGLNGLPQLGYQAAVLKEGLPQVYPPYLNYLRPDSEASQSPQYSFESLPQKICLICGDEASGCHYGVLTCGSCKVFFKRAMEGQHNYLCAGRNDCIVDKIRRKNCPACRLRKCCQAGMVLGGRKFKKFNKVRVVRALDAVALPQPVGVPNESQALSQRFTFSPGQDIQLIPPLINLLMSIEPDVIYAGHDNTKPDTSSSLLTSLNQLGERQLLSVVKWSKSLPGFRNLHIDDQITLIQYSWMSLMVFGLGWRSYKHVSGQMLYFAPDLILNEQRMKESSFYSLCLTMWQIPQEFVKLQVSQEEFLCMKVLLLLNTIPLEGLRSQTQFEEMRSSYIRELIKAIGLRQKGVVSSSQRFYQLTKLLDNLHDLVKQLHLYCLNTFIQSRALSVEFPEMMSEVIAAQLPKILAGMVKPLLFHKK

[1] = biological target: T2, Alpha-1A adrenergic receptor (Homo sapiens, UniProt P35348); format: functional, cell-based
T2 sequence (P35348 whole entry): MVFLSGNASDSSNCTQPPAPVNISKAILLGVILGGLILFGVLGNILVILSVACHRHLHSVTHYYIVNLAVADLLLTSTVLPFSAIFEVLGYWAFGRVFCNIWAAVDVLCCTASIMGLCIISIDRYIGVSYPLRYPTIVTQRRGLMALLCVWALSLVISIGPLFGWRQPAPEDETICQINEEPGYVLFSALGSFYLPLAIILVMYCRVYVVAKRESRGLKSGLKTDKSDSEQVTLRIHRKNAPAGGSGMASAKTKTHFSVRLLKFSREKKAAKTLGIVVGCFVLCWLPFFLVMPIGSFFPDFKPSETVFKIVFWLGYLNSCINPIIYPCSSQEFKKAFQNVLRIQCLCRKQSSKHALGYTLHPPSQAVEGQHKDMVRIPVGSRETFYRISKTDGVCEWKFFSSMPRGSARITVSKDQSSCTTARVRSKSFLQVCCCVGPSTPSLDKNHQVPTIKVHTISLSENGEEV

[2] = biological target: T2, Alpha-1A adrenergic receptor; format: functional, cell-based; remark: listed apart in the source
[3] = biological target: T3, Muscarinic acetylcholine receptor M2 (Homo sapiens, UniProt P08172); format: functional, cell-based
T3 sequence (P08172 whole entry): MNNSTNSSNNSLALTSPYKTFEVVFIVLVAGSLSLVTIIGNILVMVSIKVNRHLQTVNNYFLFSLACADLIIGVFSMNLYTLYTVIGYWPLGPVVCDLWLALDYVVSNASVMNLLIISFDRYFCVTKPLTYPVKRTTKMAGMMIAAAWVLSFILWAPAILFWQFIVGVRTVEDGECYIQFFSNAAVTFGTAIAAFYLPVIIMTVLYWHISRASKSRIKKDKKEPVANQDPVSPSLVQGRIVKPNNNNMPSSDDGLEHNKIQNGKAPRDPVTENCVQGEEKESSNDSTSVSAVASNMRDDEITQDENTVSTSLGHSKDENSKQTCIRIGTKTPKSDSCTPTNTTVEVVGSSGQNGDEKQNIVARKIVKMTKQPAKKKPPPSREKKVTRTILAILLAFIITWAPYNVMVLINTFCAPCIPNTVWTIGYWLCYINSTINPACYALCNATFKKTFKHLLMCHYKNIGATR

Glucocorticoid receptor = biological target: T4, Glucocorticoid receptor (Homo sapiens, UniProt P04150)
T4 sequence (P04150 whole entry): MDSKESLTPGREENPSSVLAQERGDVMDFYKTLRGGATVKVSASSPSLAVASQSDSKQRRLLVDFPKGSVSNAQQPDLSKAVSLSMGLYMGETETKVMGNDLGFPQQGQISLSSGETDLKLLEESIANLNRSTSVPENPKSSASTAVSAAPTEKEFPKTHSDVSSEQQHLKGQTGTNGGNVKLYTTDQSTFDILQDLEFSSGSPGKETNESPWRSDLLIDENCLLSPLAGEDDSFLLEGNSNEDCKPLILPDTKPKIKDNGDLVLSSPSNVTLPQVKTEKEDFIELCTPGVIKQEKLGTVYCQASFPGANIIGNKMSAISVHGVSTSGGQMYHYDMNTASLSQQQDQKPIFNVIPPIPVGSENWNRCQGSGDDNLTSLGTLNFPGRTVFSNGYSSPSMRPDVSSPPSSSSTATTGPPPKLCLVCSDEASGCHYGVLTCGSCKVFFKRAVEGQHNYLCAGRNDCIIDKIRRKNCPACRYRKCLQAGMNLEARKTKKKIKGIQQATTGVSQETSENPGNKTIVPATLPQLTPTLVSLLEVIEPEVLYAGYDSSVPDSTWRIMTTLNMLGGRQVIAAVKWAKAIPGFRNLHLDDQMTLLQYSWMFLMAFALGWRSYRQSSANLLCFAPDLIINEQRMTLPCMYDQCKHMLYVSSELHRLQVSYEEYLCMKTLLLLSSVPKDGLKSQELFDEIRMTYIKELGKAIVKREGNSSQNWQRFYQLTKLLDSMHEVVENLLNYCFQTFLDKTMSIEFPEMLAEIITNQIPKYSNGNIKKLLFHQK

[4] = biological target: Beta-1 adrenergic receptor (Homo sapiens, UniProt P08588); format: functional
[5] = biological target: Beta-2 adrenergic receptor (Homo sapiens, UniProt P07550)
[6] = biological target: Glutamate receptor ionotropic, NMDA 1 (Rattus norvegicus, UniProt P35439)
Note: assay procedure not described here.

Chain of Beta-2 adrenergic receptor (P07550 whole entry): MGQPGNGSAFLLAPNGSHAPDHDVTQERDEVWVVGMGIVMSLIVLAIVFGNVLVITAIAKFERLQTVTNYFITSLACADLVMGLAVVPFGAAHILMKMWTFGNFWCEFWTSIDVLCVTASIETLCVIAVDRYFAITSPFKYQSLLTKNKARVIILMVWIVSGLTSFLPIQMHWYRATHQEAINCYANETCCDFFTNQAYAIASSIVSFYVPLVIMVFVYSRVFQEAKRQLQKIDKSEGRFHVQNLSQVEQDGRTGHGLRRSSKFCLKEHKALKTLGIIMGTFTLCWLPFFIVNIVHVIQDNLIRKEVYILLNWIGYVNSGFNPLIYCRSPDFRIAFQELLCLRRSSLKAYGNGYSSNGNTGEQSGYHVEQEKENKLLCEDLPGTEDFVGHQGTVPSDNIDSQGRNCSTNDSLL
Chain of Beta-1 adrenergic receptor (P08588 whole entry): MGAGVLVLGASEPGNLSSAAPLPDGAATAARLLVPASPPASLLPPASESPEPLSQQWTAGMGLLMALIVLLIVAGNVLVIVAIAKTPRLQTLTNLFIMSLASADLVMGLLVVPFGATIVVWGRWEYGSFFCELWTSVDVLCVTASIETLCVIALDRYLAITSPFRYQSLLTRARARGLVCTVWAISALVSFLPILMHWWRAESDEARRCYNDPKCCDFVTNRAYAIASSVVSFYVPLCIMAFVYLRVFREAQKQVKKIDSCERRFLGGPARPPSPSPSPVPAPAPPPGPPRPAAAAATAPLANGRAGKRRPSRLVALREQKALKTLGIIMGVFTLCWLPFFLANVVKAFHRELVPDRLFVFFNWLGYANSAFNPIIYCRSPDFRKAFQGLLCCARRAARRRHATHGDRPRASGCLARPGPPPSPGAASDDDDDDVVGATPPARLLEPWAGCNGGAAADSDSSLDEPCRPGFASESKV

SMILES | AC50 (Progesterone receptor) [µM] | AC50 [1] [µM] | AC50 [2] [µM] | AC50 [3] [µM] | AC50 (Glucocorticoid receptor) [µM] | AC50 [4] [µM] | AC50 [5] [µM] | AC50 [6] [µM]
O=C1c2c(O)c(=O)ccn2N([C@@H]2c3ccccc3SCc3c2ccc(F)c3F)[C@@H]2COCCN12 [BALOXAVIR] | > 30 | > 30 | > 30 |  |  |  |  | 
C(=N\NC1=NCCN1)/c1c2ccccc2c(/C=N/NC2=NCCN2)c2ccccc12 [BISANTRENE] | > 30 | > 30 | 1.47 |  |  |  |  | 
CCO/N=C(\C(=O)N[C@@H]1C(=O)N2C(C(=O)[O-])=C(Sc3nc(-c4cc[n+](C)cc4)cs3)CS[C@H]12)c1nsc(N)n1 [CEFTAROLINE] | > 30 | > 30 | > 30 |  |  |  |  | 
Cc1cc(O)cc(C)c1Cl [CHLOROXYLENOL] | > 30 |  |  |  |  |  |  | 
CN(C)CCCN1c2ccccc2CCc2ccc(Cl)cc21 [CLOMIPRAMINE] |  | > 30 | 0.0154 | > 10 |  |  |  | 
C[N+](C)(C)CCCCCCCCCC[N+](C)(C)C [DECAMETHONIUM] |  | > 30 | > 30 |  |  |  |  | 
O=C1c2ccccc2C(=O)C1C(=O)C(c1ccccc1)c1ccccc1 [DIPHENADIONE] | > 30 | 4.95 | > 3 |  |  |  |  | 
CCC(=O)O[C@H]1[C@H](O[C@@H]2[C@@H](C)[C@H](O[C@H]3C[C@@](C)(OC)[C@@H](O)[C@H](C)O3)[C@@H](C)C(=O)O[C@H](CC)[C@@](C)(O)[C@H](O)[C@@H](C)C(=O)[C@H](C)C[C@@]2(C)O)O[C@H](C)C[C@@H]1N(C)C [ERYTHROMYCIN PROPIONATE] | 10.4 |  |  |  |  |  |  | 
C#C[C@]1(O)CC[C@H]2[C@@H]3CCc4cc(O)ccc4[C@H]3CC[C@@]21C [ETHINYL ESTRADIOL] | 0.02 | > 30 | > 10 | > 10 | 0.12 | > 10 | > 10 | > 10
CCOC(=O)c1ccc(O)cc1 [ETHYLPARABEN] | > 30 | > 30 | > 30 |  |  |  |  | 
O=C1[C@H](CC[C@H](O)c2ccc(F)cc2)[C@@H](c2ccc(O)cc2)N1c1ccc(F)cc1 [EZETIMIBE] | 24.6 | 9.94 |  |  |  |  |  | 
O=C(COc1ccc(Cl)cc1)N1CCN(Cc2ccc3c(c2)OCO3)CC1 [FIPEXIDE] | > 30 | > 30 | 13.3 |  |  |  |  | 
Cc1c(-c2ccccc2)oc2c(C(=O)OCCN3CCCCC3)cccc2c1=O [FLAVOXATE] | > 30 | > 30 | 6.29 |  |  |  |  | 
CCC(=O)c1c(O)cc(O)cc1O [FLOPROPIONE] | > 30 | > 30 | > 30 |  |  |  |  | 
CC1(C)O[C@@H]2C[C@H]3[C@@H]4C[C@H](F)C5=CC(=O)CC[C@]5(C)[C@H]4[C@@H](O)C[C@]3(C)[C@]2(C(=O)CO)O1 [FLURANDRENOLIDE] | 0.0666 | > 30 | > 30 |  |  |  |  | 
CC(C)C(=O)Nc1ccc([N+](=O)[O-])c(C(F)(F)F)c1 [FLUTAMIDE] | > 30 | > 30 | 9.04 | > 10 |  | > 10 | > 10 | > 10
